Laboratory results reported in patent publication US6524330B1, “Method of ocular treatment” (priority 2000, dated 2003).
“Also recorded” adds a separate entry of the source.

Experiments:
[1] = tested on: choriocapillaris; assay: Photodynamic therapy with liposomal hypocrellin A in rabbit eyes, yellow laser (568 nm), fundus observation and fluorescein angiography; type: in vivo, Rabbits (Dutch belted pigmented); conditions: for Fluorescein Angiogram 2 hours post PDT / Fluorescein Angiogram 24 hours post PDT: 568 nm, 500 μg/kg i.v. in liposomes
Protocol: (§1) Rabbits (twenty-five Dutch belted pigmented, 2-3 kg body weight), were administered hypocrellin A (Molecular Probes, Eugene, Oreg.) by systemic injection into the ear vein. Animals were anesthetized by intramuscular injection of ketamine hydrochloride (50 mg/kg) and xylazine hydrochloride (5 mg/kg). Pupils were dilated with 2.5% phenylephrine and 0.5% tropicamide.
Hypocrellin A was incorporated into liposomes composed of phosphatidylcholine (PC), phosphatidylglycerol (PG), cholesterol, or dipalmitoyl phosphatidylcholine (DPPC), dipalmitoyl phosphatidylglycerol (DPPG) (Avanti Polar Lipids, Pelham, Ala.), with or without cholesterol, using methods known to one of skill in this art. In general, large unilamellar vesicles (LUV) were formed using the reverse phase evaporation method of Szoka and Papahadjopoulos (Proc. Natl. Acad. Sci. USA 1978; 75:4194-4198). Lipids (100 mg PC, 25 mg PG, and optionally 15 mg cholesterol) and 1 mg hypocrellin A were dissolved in chloroform. The solution was placed in a round flask under rotary evaporation (Buschi Laboratoriums-teenik AG, Flawil, Schewiz) to make a thin film. The dried material was dissolved in 6 ml chloroform and 12 ml ether.
The aqueous phase consisted of 4 ml HEPES buffered saline ([…] NaCI, 2 mM KCI, 10 mM HEPES buffer, pH 7.4, 300 mOsm). This was added to the chloroform/ether solution, the flask was filled with nitrogen gas and subjected to ultrasound at 40° C. for two minutes to form a homogeneous emulsion, which was transferred to a rotary evaporator. At pressures below about 400 mm Hg, the emulsion began to bubble extensively as the organic phase was drawn off. […] The foaming emulsion was vented whenever it neared the top of the flask. Progressively higher vacuum was used to maintain foaming. As the process continued, the foaming decreased. At a pressure of about 100 mm Hg, foaming ceased and the procedure was completed. The process yielded large, negatively charged, unilamellar liposomes with HEPES buffer encapsulated into the aqueous phase and hypocrellin A incorporated into the bilayers of the liposomes. Before injection, the LUV were filtered through 0.8 μm pores.
The hypocrellin preparation was administered as an intravenous bolus into the marginal ear vein. The dose of hypocrellin administered was 500 μg/kg in a volume of about 2 ml. However, doses in the range of about […] may also be administered. Control animals received vehicle (liposomes without hypocrellin A in a saline solution) only.
(§2) After administration of compound, for example, 10-15 minutes after hypocrellin A administration, PDT was initiated upon application of laser irradiation with a dye laser (Coherent, Palo Alto, Calif.). Prior to light application, a lens with a focal length of 25 cm was placed in front of the laser beam to prevent interference with the slit lamp light path and to enlarge the spot size produced by the 500 μm setting of the laser to 2 mm on the retina. A spot size of 2 mm was used throughout. A plano fundus contact lens was placed on the cornea, with methylcellulose gel as a coupler, to null the refraction of the cornea. Animals were positioned in a stereotactic support attached to the slit lamp to maintain precise alignment.
The wavelengths were tested: yellow (568 nm) and red (647 nm). Laser powers were in the range of about 10 mW to about 60 mW. Duration of irradiation was for a minimum of 10 seconds to a maximum of 60 seconds. The photodynamic effect is not only related to the irradiance, but power and duration as well. Fluence (irradiance) is the product of power and duration divided by the spot size, but with a constant spot size, irradiance is a function of power and duration only. Fluence was in the range of 3.2 to 95.5 J/cm^2. […] In one embodiment, the lowest possible power and duration that induce the minimal fluorescein angiographic response is used.
The irradiations were done in the avascular retina, below the optic disc. […]

[2] = tested on: choriocapillaris; assay: Photodynamic therapy with hypocrellin A in rabbit eyes, red laser (647 nm), funduscopy and angiography; type: in vivo, Rabbits (Dutch belted pigmented); conditions: 647 nm (red laser); dose of 500 μg/kg systemically; any of the power levels or durations tested
Protocol: as §1
The hypocrellin preparation was administered as an intravenous bolus into the marginal ear vein. […] However, doses in the range of about […] may also be administered. Control animals received vehicle (liposomes without hypocrellin A in a saline solution) only.
as §2, with “alignment. […]” for “alignment.”

[3] = tested on: choriocapillaris
Protocol: Immediately after the second fluorescein examination, eyes were enucleated and fixed in 2% paraformaldehyde and 3% glutaraldehyde for 24 h. The areas of PDT treatment were surgically excised and specimens were dehydrated in ethanol, embedded in resin, subjected to serial sectioning and staining with 1% toluidine blue for light microscopy.

[4] = cited from earlier work
[5] = power 10 mW, duration 10, 20, 30, 40, 50, 60 sec, irradiance 3.2-19.1 J/cm^2, 2 mm spot
[6] = power 20 mW, duration 10, 20, 30, 40, 50 sec, irradiance 6.4-31.8 J/cm^2
[7] = power 20 mW, duration 60 sec, irradiance 38.2 J/cm^2
[8] = power 30 mW, duration 10, 20, 30 sec, irradiance 9.6-28.6 J/cm^2
[9] = power 30 mW, duration 40, 50, 60 sec, irradiance 38.2-57.3 J/cm^2
[10] = power 40 mW, duration 10 sec, irradiance 12.7 J/cm^2
[11] = power 40 mW, duration 20, 30, 40, 50, 60 sec, irradiance 25.4-76.4 J/cm^2
[12] = power 50 mW, duration 10, 20, 30, 40, 50, 60 sec, irradiance 15.9-95.5 J/cm^2
[13] = power 60 mW, duration 10 sec, irradiance 19.1 J/cm^2
[14] = power 60 mW, duration 20 sec, irradiance 38.2 J/cm^2
[15] = power 60 mW, duration 30 sec, irradiance 57.3 J/cm^2

Substance: hypocrellin A
- retinal changes in the treated area during or immediately after laser irradiation ([1]; 568 nm (yellow laser), treated rabbits): no retinal changes
- Fluorescein Angiogram 2 hours post PDT [1, 5]: no effect; also recorded: No response
- Fluorescein Angiogram 24 hours post PDT [1, 5]: no effect; also recorded: No response
- Fluorescein Angiogram 2 hours post PDT [1, 6]: no effect; also recorded: No response
- Fluorescein Angiogram 24 hours post PDT [1, 6]: no effect; also recorded: No response
- Fluorescein Angiogram 2 hours post PDT [1, 7]: No response
- Fluorescein Angiogram 24 hours post PDT [1, 7]: minimal response; also recorded: Minimal H
- Fluorescein Angiogram 2 hours post PDT [1, 8]: No response
- Fluorescein Angiogram 24 hours post PDT [1, 8]: No response
- Fluorescein Angiogram 2 hours post PDT [1, 9]: No response
- Fluorescein Angiogram 24 hours post PDT [1, 9]: fluorescence effect was seen and H
- Fluorescein Angiogram 2 hours post PDT [1, 10]: No response
- Fluorescein Angiogram 24 hours post PDT [1, 10]: No response
- Fluorescein Angiogram 2 hours post PDT [1, 11]: no effect; also recorded: No response
- Fluorescein Angiogram 24 hours post PDT [1, 11]: fluorescence effect and H
- Fluorescein Angiogram 2 hours post PDT [1, 12]: No response
- Fluorescein Angiogram 24 hours post PDT [1, 12]: fluorescence effect was observed and H
- Fluorescein Angiogram 2 hours post PDT [1, 13]: No response
- Fluorescein Angiogram 24 hours post PDT [1, 13]: response visible on the angiogram and fluorescence effect and H
- Fluorescein Angiogram 2 hours post PDT [1, 14]: fluorescence effect was seen and H
- Fluorescein Angiogram 24 hours post PDT [1, 14]: fluorescence effect was seen and H
- Fluorescein Angiogram 2 hours post PDT [1, 15]: fluorescence effect was seen and H
- Fluorescein Angiogram 24 hours post PDT [1, 15]: fluorescence effect was seen and H
- funduscopic or angiographic changes [2]: no demonstrable funduscopic or angiographic changes
- histologic finding by light microscopy 24 hours after laser irradiation ([3]; all eyes that developed angiographic changes): occlusion of the choriocapillaris
- damage to inner or outer retinal layers ([3]; light microscopy 24 hours after laser irradiation): No damage to inner or outer retinal layers
- toxicity in the absence of light [4]: non-toxic
